System: 327498-153-R-J2-PDC complex spheroid growth, % test/control
Experiment: Anticancer human tumor 327498-153-R-J2-PDC patient-derived uterine carcinosarcoma cell line growth inhibition [Asc]
Conditions: for IC50: curve of first compound; for viability, T/C: stronger effect = lower value; active means viability on the fitted dose curve at most 10% of control; inactive means the rest
In short: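 Complex solid-tumor spheroids incorporating human endothelial and mesenchymal stem cells received single agents or combinations over half-log dilution ranges anchored to clinical Cmax.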

[1] = second compound 0.01 µM, first compound 0.00316 µM
[2] = second compound 0.01 µM, first compound 0.01 µM
[3] = second compound 0.01 µM, first compound 0.0316 µM
[4] = second compound 0.01 µM, first compound 0.1 µM
[5] = second compound 0.01 µM, first compound 0.316 µM
[6] = second compound 0.01 µM, first compound 1 µM
[7] = second compound 0.0316 µM, first compound 0.00316 µM
[8] = second compound 0.0316 µM, first compound 0.01 µM
[9] = second compound 0.0316 µM, first compound 0.0316 µM
[10] = second compound 0.0316 µM, first compound 0.1 µM
[11] = second compound 0.0316 µM, first compound 0.316 µM
[12] = second compound 0.0316 µM, first compound 1 µM
[13] = second compound 0.1 µM, first compound 0.00316 µM
[14] = second compound 0.1 µM, first compound 0.01 µM
[15] = second compound 0.1 µM, first compound 0.0316 µM
[16] = second compound 0.1 µM, first compound 0.1 µM
[17] = second compound 0.1 µM, first compound 0.316 µM
[18] = second compound 0.1 µM, first compound 1 µM
[19] = second compound 0.316 µM, first compound 0.00316 µM
[20] = second compound 0.316 µM, first compound 0.01 µM
[21] = second compound 0.316 µM, first compound 0.0316 µM
[22] = second compound 0.316 µM, first compound 0.1 µM
[23] = second compound 0.316 µM, first compound 0.316 µM
[24] = second compound 0.316 µM, first compound 1 µM
[25] = second compound 1 µM, first compound 0.00316 µM
[26] = second compound 1 µM, first compound 0.01 µM
[27] = second compound 1 µM, first compound 0.0316 µM
[28] = second compound 1 µM, first compound 0.1 µM
[29] = second compound 1 µM, first compound 0.316 µM
[30] = second compound 1 µM, first compound 1 µM
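Further: spheroids exposed to compound for 7 days after 3 days of growth.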
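Wherever viability, T/C is given: 100% = DMSO vehicle control wells.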

CCN1CCN(Cc2ccc(Nc3ncc(F)c(-c4cc(F)c5nc(C)n(C(C)C)c5c4)n3)nc2)CC1 + CNC(C)C(=O)NC1CN(S(=O)(=O)c2cccc(S(=O)(=O)N3CCC4CCC(C(=O)NC(c5ccccc5)c5ccccc5)N4C(=O)C(NC(=O)C(C)NC)C3)c2)CCC2CCC(C(=O)NC(c3ccccc3)c3ccccc3)N2C1=O
> 1000 nM: IC50 (second compound 0.01 µM) | IC50 (second compound 0.0316 µM) | IC50 (second compound 0.1 µM) | IC50 (second compound 0.316 µM) | IC50 (second compound 1 µM)
inactive: viability, T/C [1] 102% | viability, T/C [2] 110% | viability, T/C [3] 97.7% | viability, T/C [4] 88.9% | viability, T/C [5] 68.7% | viability, T/C [6] 73.8% | viability, T/C [7] 106% | viability, T/C [8] 104% | viability, T/C [9] 90.5% | viability, T/C [10] 82.4% | viability, T/C [11] 61.2% | viability, T/C [12] 65% | viability, T/C [13] 99.4% | viability, T/C [14] 104% | viability, T/C [15] 94% | viability, T/C [16] 76.7% | viability, T/C [17] 68% | viability, T/C [18] 68.2% | viability, T/C [19] 110% | viability, T/C [20] 100% | viability, T/C [21] 95.5% | viability, T/C [22] 75.9% | viability, T/C [23] 65.8% | viability, T/C [24] 64.4% | viability, T/C [25] 106% | viability, T/C [26] 115% | viability, T/C [27] 91.6% | viability, T/C [28] 82.1% | viability, T/C [29] 73% | viability, T/C [30] 54.7%

COc1c(OCCCN2CCOCC2)ccc2c3n(c(=NC(=O)c4cnc(N)nc4)nc12)CCN3 + CNC(C)C(=O)NC1CN(S(=O)(=O)c2cccc(S(=O)(=O)N3CCC4CCC(C(=O)NC(c5ccccc5)c5ccccc5)N4C(=O)C(NC(=O)C(C)NC)C3)c2)CCC2CCC(C(=O)NC(c3ccccc3)c3ccccc3)N2C1=O
inactive: viability, T/C [1] 93.4% | viability, T/C [2] 92.7% | viability, T/C [3] 92.3% | viability, T/C [4] 57.5% | viability, T/C [5] 27.6% | viability, T/C [7] 96.7% | viability, T/C [8] 94.9% | viability, T/C [9] 79.1% | viability, T/C [10] 62.1% | viability, T/C [11] 27.8% | viability, T/C [13] 106% | viability, T/C [14] 89.5% | viability, T/C [15] 85.7% | viability, T/C [16] 59% | viability, T/C [17] 25.7% | viability, T/C [19] 111% | viability, T/C [20] 110% | viability, T/C [21] 86.1% | viability, T/C [22] 59% | viability, T/C [23] 26.9% | viability, T/C [25] 111% | viability, T/C [26] 95.2% | viability, T/C [27] 85.1% | viability, T/C [28] 65% | viability, T/C [29] 24.8%
137 nM: IC50 (second compound 0.316 µM)
135 nM: IC50 (second compound 0.1 µM)
146 nM: IC50 (second compound 1 µM)
144 nM: IC50 (second compound 0.01 µM) | IC50 (second compound 0.0316 µM)
active: viability, T/C [6] 4.73% | viability, T/C [12] 3.85% | viability, T/C [18] 3.38% | viability, T/C [24] 2.23% | viability, T/C [30] 2.95%

NC(=O)C(=Cn1cnc(-c2cc(C(F)(F)F)cc(C(F)(F)F)c2)n1)c1cncnc1 + CNC(C)C(=O)NC1CN(S(=O)(=O)c2cccc(S(=O)(=O)N3CCC4CCC(C(=O)NC(c5ccccc5)c5ccccc5)N4C(=O)C(NC(=O)C(C)NC)C3)c2)CCC2CCC(C(=O)NC(c3ccccc3)c3ccccc3)N2C1=O
40.1 nM: IC50 (second compound 0.0316 µM)
40.9 nM: IC50 (second compound 0.1 µM) | IC50 (second compound 0.316 µM)
active: viability, T/C (second compound 0.01 µM, first compound 0.3 µM) 1.73% | viability, T/C (second compound 0.0316 µM, first compound 0.0949 µM) 9.05% | viability, T/C (second compound 0.0316 µM, first compound 0.3 µM) 1.71% | viability, T/C (second compound 0.1 µM, first compound 0.3 µM) 1.32% | viability, T/C (second compound 0.316 µM, first compound 0.0949 µM) 9.52% | viability, T/C (second compound 0.316 µM, first compound 0.3 µM) 1.32% | viability, T/C (second compound 1 µM, first compound 0.0949 µM) 7.78% | viability, T/C (second compound 1 µM, first compound 0.3 µM) 1.13%
38.6 nM: IC50 (second compound 0.01 µM)
inactive: viability, T/C (second compound 0.01 µM, first compound 0.000949 µM) 93% | viability, T/C (second compound 0.01 µM, first compound 0.003 µM) 111% | viability, T/C (second compound 0.01 µM, first compound 0.00949 µM) 84.5% | viability, T/C (second compound 0.01 µM, first compound 0.03 µM) 63% | viability, T/C (second compound 0.01 µM, first compound 0.0949 µM) 12.1% | viability, T/C (second compound 0.0316 µM, first compound 0.000949 µM) 90.1% | viability, T/C (second compound 0.0316 µM, first compound 0.003 µM) 91.5% | viability, T/C (second compound 0.0316 µM, first compound 0.00949 µM) 88% | viability, T/C (second compound 0.0316 µM, first compound 0.03 µM) 63.8% | viability, T/C (second compound 0.1 µM, first compound 0.000949 µM) 92.8% | viability, T/C (second compound 0.1 µM, first compound 0.003 µM) 94.4% | viability, T/C (second compound 0.1 µM, first compound 0.00949 µM) 85.8% | viability, T/C (second compound 0.1 µM, first compound 0.03 µM) 65.4% | viability, T/C (second compound 0.1 µM, first compound 0.0949 µM) 9.53% | viability, T/C (second compound 0.316 µM, first compound 0.000949 µM) 91.9% | viability, T/C (second compound 0.316 µM, first compound 0.003 µM) 91.8% | viability, T/C (second compound 0.316 µM, first compound 0.00949 µM) 88.4% | viability, T/C (second compound 0.316 µM, first compound 0.03 µM) 65% | viability, T/C (second compound 1 µM, first compound 0.000949 µM) 102% | viability, T/C (second compound 1 µM, first compound 0.003 µM) 92.1% | viability, T/C (second compound 1 µM, first compound 0.00949 µM) 82.2% | viability, T/C (second compound 1 µM, first compound 0.03 µM) 75.2%
46 nM: IC50 (second compound 1 µM)

NC1CCC(NC2CC2c2ccccc2)CC1 (stereo not given) + CNC(C)C(=O)NC1CN(S(=O)(=O)c2cccc(S(=O)(=O)N3CCC4CCC(C(=O)NC(c5ccccc5)c5ccccc5)N4C(=O)C(NC(=O)C(C)NC)C3)c2)CCC2CCC(C(=O)NC(c3ccccc3)c3ccccc3)N2C1=O
> 100 nM: IC50 (second compound 0.01 µM) | IC50 (second compound 0.0316 µM) | IC50 (second compound 0.1 µM) | IC50 (second compound 0.316 µM) | IC50 (second compound 1 µM)
inactive: viability, T/C (second compound 0.01 µM, first compound 0.000316 µM) 103% | viability, T/C (second compound 0.01 µM, first compound 0.001 µM) 106% | viability, T/C [1] 92.3% | viability, T/C [2] 97.6% | viability, T/C [3] 99.4% | viability, T/C [4] 96% | viability, T/C (second compound 0.0316 µM, first compound 0.000316 µM) 104% | viability, T/C (second compound 0.0316 µM, first compound 0.001 µM) 104% | viability, T/C [7] 101% | viability, T/C [8] 100% | viability, T/C [9] 99.9% | viability, T/C [10] 101% | viability, T/C (second compound 0.1 µM, first compound 0.000316 µM) 100% | viability, T/C (second compound 0.1 µM, first compound 0.001 µM) 101% | viability, T/C [13] 100% | viability, T/C [14] 104% | viability, T/C [15] 108% | viability, T/C [16] 98.9% | viability, T/C (second compound 0.316 µM, first compound 0.000316 µM) 101% | viability, T/C (second compound 0.316 µM, first compound 0.001 µM) 107% | viability, T/C [19] 106% | viability, T/C [20] 98.5% | viability, T/C [21] 96.8% | viability, T/C [22] 100% | viability, T/C (second compound 1 µM, first compound 0.000316 µM) 106% | viability, T/C (second compound 1 µM, first compound 0.001 µM) 113% | viability, T/C [25] 108% | viability, T/C [26] 105% | viability, T/C [27] 94.7% | viability, T/C [28] 97.8%
